Tested on: cataract formation in galactocemic rats
Assay: in vivo dose response by intubation (per oral) in galactocemic rats, cataract (vacuole) formation
Parameters: species or system Charles River CD (Sprague-Dawley derived) male rats
Method: B. In vivo dose response studies were conducted to test the in vivo activity of the following compounds by intubation (per oral) in galactocemic rats on a 30% galactose diet previously described:
Stock suspensions of the test compounds and all dilutions of the compound were formulated with 0.03% by weight Tween 80.
Healthy, Charles River CD (outbred albino, Sprague-Dawley derived) male rats, aged 20-30 days, without observable ocular defects and ranging in weight from 35-45 grams, were acclimated to experimental conditions (in quarantine) for two days prior to beginning the study.
Rats were individually assigned to one of twenty-three groups according to a random number schedule. Two rats, belonging to the same drug-diet treatment group, were housed per cage. Treatment and control groups consisted of six (6) rats each with no replacement in the event of death, and were designated as follows:
Lenses of all eyes were examined with a hand-held ophthalmoscope in the early stages of cataract development and a penlight for the stages, snowflake-like, snowflake, and nuclear cataract. Lens grading occurred every day for the first ten study days, and then every other day until study Day 14.
The relative potency determination was made at 7 drug levels over half log dose intervals. The response (percent cataracts formed and/or the time to cataract formation) was plotted against mg/kg and/or moles/kg.
The study was directed to the suppression and/or elimination of the initial stages of cataract development characterized by vacuoles or snowflake-likeopacities only. It was assumed therefore that suppression and/or elimination of vacuoles or lens opacification by the test drugs affects the transport, absorption and/or metabolism of galactose in such a manner as to prevent subsequent osmotic disturbances normally leading to tissue degeneration and advanced cataract. Advanced cataract defined as stages 2-4 of the Sipple classification was assumed to be of secondary importance to the etiology of cataract inhibition.
In the event where cataract stage other than vacuole formed, such as snowflake-like opacities, this cataract was counted similarly as vacuole in percent cataract formation.
This study yielded this expected effect in the control groups.
All animals were fed Purina Laboratory Chow and water, ad libitum, for the two day acclimation period. All drugs were dosed orally by intubation using an animal feeding needle (Popper and Sons), 18 or 20 gauge, attached to a 1 or 3 ml syringe. Once the dosing time schedule was established, the schedule was followed throughout the study to compensate for any diurnal variation.
The animals were kept on a twelve hour day/night cycle. The temperature and humidity were determined each day at the scheduled dosing time of 1:00 p.m.
The animals were weighed every other day and adjustments to dosage amounts to compensate for weight gain were made each day prior to the dose time. All food was routinely withheld from all animal groups for four hours (9:00 a.m.) prior to the drug dose and restored two hours (3:00 p.m.) post-dose. Otherwise sufficient amounts of chow or diet mixture were maintained in the food hopper to allow the animals to eat ad libitum. There were two days of drug dosage with the animals remaining on Purina Laboratory Chow (Days 1 and 2). The 30% galactose diet mixture was introduced to the animals two hours post-dose on Day 3 which constituted Day 1 of the study.
All eyes were examined with a hand-held ophthalmoscope and/or penlight at the times designated in the Experimental Design section.
It has been found in previous studies that dilation of the eye with a mydriactic (i.e. Mydriacyl) is not necessary for accurate grading, due to the semi-transparent nature of the rat iris. In the early stages (i.e., grades -, ±, and +) the lens was observed by reflecting the ophthalmoscope beam off the retina back through the lens and iris. Using this technique, vacuoles appear as dark, almost opaque patches. […]

O=C1NC(=O)C2(N1)c1ccccc1-c1ccc(F)cc12 (racemic) [Compound L, dl-Spiro(2-fluorofluoren-9,4'-imidazolidine)-2',5'-dione]
Percent of Rat Eyes With at Least Vacuoles Formed (0.126 mg/kg p.o., Day 0): 0%
Percent of Rat Eyes With at Least Vacuoles Formed (0.126 mg/kg p.o., Day 1): 0%
Percent of Rat Eyes With at Least Vacuoles Formed (0.126 mg/kg p.o., Day 2): 0%
Percent of Rat Eyes With at Least Vacuoles Formed (0.126 mg/kg p.o., Day 3): 0%
Percent of Rat Eyes With at Least Vacuoles Formed (0.126 mg/kg p.o., Day 4): 0%
Percent of Rat Eyes With at Least Vacuoles Formed (0.126 mg/kg p.o., Day 5): 0%
Percent of Rat Eyes With at Least Vacuoles Formed (0.126 mg/kg p.o., Day 6): 33%
Percent of Rat Eyes With at Least Vacuoles Formed (0.126 mg/kg p.o., Day 7): 33%
Percent of Rat Eyes With at Least Vacuoles Formed (0.126 mg/kg p.o., Day 8): 50%
Percent of Rat Eyes With at Least Vacuoles Formed (0.126 mg/kg p.o., Day 9): 50%
Percent of Rat Eyes With at Least Vacuoles Formed (0.126 mg/kg p.o., Day 10): 50%
Percent of Rat Eyes With at Least Vacuoles Formed (0.126 mg/kg p.o., Day 12): 83%
Percent of Rat Eyes With at Least Vacuoles Formed (0.126 mg/kg p.o., Day 14): 83%
Percent of Rat Eyes With at Least Vacuoles Formed (0.4 mg/kg p.o., Day 0): 0%
Percent of Rat Eyes With at Least Vacuoles Formed (0.4 mg/kg p.o., Day 1): 0%
Percent of Rat Eyes With at Least Vacuoles Formed (0.4 mg/kg p.o., Day 2): 0%
Percent of Rat Eyes With at Least Vacuoles Formed (0.4 mg/kg p.o., Day 3): 0%
Percent of Rat Eyes With at Least Vacuoles Formed (0.4 mg/kg p.o., Day 4): 0%
Percent of Rat Eyes With at Least Vacuoles Formed (0.4 mg/kg p.o., Day 5): 0%
Percent of Rat Eyes With at Least Vacuoles Formed (0.4 mg/kg p.o., Day 6): 0%
Percent of Rat Eyes With at Least Vacuoles Formed (0.4 mg/kg p.o., Day 7): 8%
Percent of Rat Eyes With at Least Vacuoles Formed (0.4 mg/kg p.o., Day 8): 42%
Percent of Rat Eyes With at Least Vacuoles Formed (0.4 mg/kg p.o., Day 9): 42%
Percent of Rat Eyes With at Least Vacuoles Formed (0.4 mg/kg p.o., Day 10): 67%
Percent of Rat Eyes With at Least Vacuoles Formed (0.4 mg/kg p.o., Day 12): 83%
Percent of Rat Eyes With at Least Vacuoles Formed (0.4 mg/kg p.o., Day 14): 100%
Percent of Rat Eyes With at Least Vacuoles Formed (1.26 mg/kg p.o., Day 0): 0%
Percent of Rat Eyes With at Least Vacuoles Formed (1.26 mg/kg p.o., Day 1): 0%
Percent of Rat Eyes With at Least Vacuoles Formed (1.26 mg/kg p.o., Day 2): 0%
Percent of Rat Eyes With at Least Vacuoles Formed (1.26 mg/kg p.o., Day 3): 0%
Percent of Rat Eyes With at Least Vacuoles Formed (1.26 mg/kg p.o., Day 4): 0%
Percent of Rat Eyes With at Least Vacuoles Formed (1.26 mg/kg p.o., Day 5): 0%
Percent of Rat Eyes With at Least Vacuoles Formed (1.26 mg/kg p.o., Day 6): 0.0%
Percent of Rat Eyes With at Least Vacuoles Formed (1.26 mg/kg p.o., Day 6, listed as 2-fluoro): 0%
Percent of Rat Eyes With at Least Vacuoles Formed (1.26 mg/kg p.o., Day 7): 0%
Percent of Rat Eyes With at Least Vacuoles Formed (1.26 mg/kg p.o., Day 8): 0%
Percent of Rat Eyes With at Least Vacuoles Formed (1.26 mg/kg p.o., Day 9): 0%
Percent of Rat Eyes With at Least Vacuoles Formed (1.26 mg/kg p.o., Day 10): 0%
Percent of Rat Eyes With at Least Vacuoles Formed (1.26 mg/kg p.o., Day 12): 0%
Percent of Rat Eyes With at Least Vacuoles Formed (1.26 mg/kg p.o., Day 14): 0%
Percent of Rat Eyes With at Least Vacuoles Formed (4.0 mg/kg p.o., Day 0): 0%
Percent of Rat Eyes With at Least Vacuoles Formed (4.0 mg/kg p.o., Day 1): 0%
Percent of Rat Eyes With at Least Vacuoles Formed (4.0 mg/kg p.o., Day 2): 0%
Percent of Rat Eyes With at Least Vacuoles Formed (4.0 mg/kg p.o., Day 3): 0%
Percent of Rat Eyes With at Least Vacuoles Formed (4.0 mg/kg p.o., Day 4): 0%
Percent of Rat Eyes With at Least Vacuoles Formed (4.0 mg/kg p.o., Day 5): 0%
Percent of Rat Eyes With at Least Vacuoles Formed (4.0 mg/kg p.o., Day 6): 0.0%
Percent of Rat Eyes With at Least Vacuoles Formed (4.0 mg/kg p.o., Day 6, listed as 2-fluoro): 0%
Percent of Rat Eyes With at Least Vacuoles Formed (4.0 mg/kg p.o., Day 7): 0.0%
Percent of Rat Eyes With at Least Vacuoles Formed (4.0 mg/kg p.o., Day 7, listed as 2-fluoro): 0%
Percent of Rat Eyes With at Least Vacuoles Formed (4.0 mg/kg p.o., Day 8): 0.0%

From patent US4540700A, “Treatment of diabetic complications with certain spiro-imidazolidine-diones” (Alcon Laboratories, Inc., priority 1984, dated 1985)
